According to ChEMBL document CHEMBL3885881, “DrugMatrix”:

Species: Rattus norvegicus
Assay: DrugMatrix - Regimen: Daily Repeat
Type: toxicity, organism-based, Sprague-Dawley
Parameters: regimen Daily Repeat, gender Male, age 6-8 weeks
Settings: in vivo, iv, vehicle 100 % SALINE; for ABSOLUTE BASOPHIL / ABSOLUTE EOSINOPHIL / ABSOLUTE LYMPHOCYTE / ABSOLUTE MONOCYTE / ABSOLUTE SEGMENTED NEUTROPHIL / BASOPHIL / EOSINOPHIL / ERYTHROCYTE COUNT / HEMATOCRIT / HEMOGLOBIN / LEUKOCYTE COUNT / LYMPHOCYTE / MEAN CORPUSCULAR HEMOGLOBIN / MEAN CORPUSCULAR HEMOGLOBIN CONCENTRATION / MEAN CORPUSCULAR VOLUME / MONOCYTE / NEUTROPHIL / NUCLEATED RED BLOOD CELLS / PLATELET COUNT: tissue Blood; for ALANINE AMINOTRANSFERASE / ALBUMIN / ALKALINE PHOSPHATASE / ASPARTATE AMINOTRANSFERASE / BLOOD UREA NITROGEN / CARBON DIOXIDE / CHLORIDE / CHOLESTEROL / CREATINE PHOSPHOKINASE / CREATININE / GLUCOSE / LACTATE DEHYDROGENASE / LIPASE / PHOSPHORUS / POTASSIUM / SODIUM / TOTAL BILIRUBIN / TOTAL PROTEIN / URIC ACID: tissue Plasma
[1] = 2 mg/kg, 72 h, dose level Low, time 3 day
[2] = 2 mg/kg, 120 h, dose level Low, time 5 day
[3] = 20 mg/kg, 72 h, dose level High, time 3 day
[4] = 20 mg/kg, 120 h, dose level High, time 5 day

## CCN1CC(CCN2CCOCC2)C(c2ccccc2)(c2ccccc2)C1=O (configuration not stated) [DOXAPRAM]
[1]
  ABSOLUTE BASOPHIL: 0 CELLS/uL
  ABSOLUTE EOSINOPHIL: 0 CELLS/uL
  ABSOLUTE LYMPHOCYTE: 13662.33 CELLS/uL
  ABSOLUTE MONOCYTE: 351.67 CELLS/uL
  ABSOLUTE SEGMENTED NEUTROPHIL: 2319.33 CELLS/uL
  BASOPHIL: 0%
  EOSINOPHIL: 0%
  ERYTHROCYTE COUNT: 5.67 x10E6/uL
  HEMATOCRIT: 35.7%
  HEMOGLOBIN: 14.2 G/DL
  LEUKOCYTE COUNT: 16.33 x10E3/uL
  LYMPHOCYTE: 84%
  MEAN CORPUSCULAR HEMOGLOBIN: 25.1 pg
  MEAN CORPUSCULAR HEMOGLOBIN CONCENTRATION: 39.77 G/DL
  MEAN CORPUSCULAR VOLUME: 63.03 fL
  MONOCYTE: 2%
  NEUTROPHIL: 14%
  NUCLEATED RED BLOOD CELLS: 0 /100WBC
  PLATELET COUNT: 1174 x10E3/uL
  ALANINE AMINOTRANSFERASE: 72.33 u/L
  ALBUMIN: 3.93 G/DL
  ALKALINE PHOSPHATASE: 296.67 u/L
  ASPARTATE AMINOTRANSFERASE: 101 u/L
  BLOOD UREA NITROGEN: 17 mg/dL
  CARBON DIOXIDE: 26.33 mmol/L
  CHLORIDE: 101.33 MEQ/L
  CHOLESTEROL: 83.33 mg/dL
  CREATINE PHOSPHOKINASE: 298.67 u/L
  CREATININE: 0.15 mg/dL
  GLUCOSE: 149 mg/dL
  LACTATE DEHYDROGENASE: 372.67 u/L
  LIPASE: 8 u/L
  PHOSPHORUS: 12.83 mg/dL
  POTASSIUM: 7.17 MEQ/L
  SODIUM: 146.3 MEQ/L
  TOTAL BILIRUBIN: 0.17 mg/dL
  TOTAL PROTEIN: 6.1 G/DL
  URIC ACID: 1.53 mg/dL
[2]
  ABSOLUTE BASOPHIL: 0 CELLS/uL
  ABSOLUTE EOSINOPHIL: 0 CELLS/uL
  ABSOLUTE LYMPHOCYTE: 13405 CELLS/uL
  ABSOLUTE MONOCYTE: 468.67 CELLS/uL
  ABSOLUTE SEGMENTED NEUTROPHIL: 2059.67 CELLS/uL
  BASOPHIL: 0%
  EOSINOPHIL: 0%
  ERYTHROCYTE COUNT: 6.04 x10E6/uL
  HEMATOCRIT: 37.2%
  HEMOGLOBIN: 14.8 G/DL
  LEUKOCYTE COUNT: 15.93 x10E3/uL
  LYMPHOCYTE: 84%
  MEAN CORPUSCULAR HEMOGLOBIN: 24.5 pg
  MEAN CORPUSCULAR HEMOGLOBIN CONCENTRATION: 39.8 G/DL
  MEAN CORPUSCULAR VOLUME: 61.53 fL
  MONOCYTE: 3%
  NEUTROPHIL: 13%
  NUCLEATED RED BLOOD CELLS: 0.67 /100WBC
  PLATELET COUNT: 1035 x10E3/uL
  ALANINE AMINOTRANSFERASE: 97.67 u/L
  ALBUMIN: 3.97 G/DL
  ALKALINE PHOSPHATASE: 400.33 u/L
  ASPARTATE AMINOTRANSFERASE: 101.33 u/L
  BLOOD UREA NITROGEN: 15.33 mg/dL
  CARBON DIOXIDE: 26.33 mmol/L
  CHLORIDE: 101.33 MEQ/L
  CHOLESTEROL: 65.33 mg/dL
  CREATINE PHOSPHOKINASE: 230 u/L
  CREATININE: 0.14 mg/dL
  GLUCOSE: 159.33 mg/dL
  LACTATE DEHYDROGENASE: 100.67 u/L
  LIPASE: 8.33 u/L
  PHOSPHORUS: 12.7 mg/dL
  POTASSIUM: 6.47 MEQ/L
  SODIUM: 144.37 MEQ/L
  TOTAL BILIRUBIN: 0.13 mg/dL
  TOTAL PROTEIN: 6.17 G/DL
  URIC ACID: 1.6 mg/dL
[3]
  ABSOLUTE BASOPHIL: 0 CELLS/uL
  ABSOLUTE EOSINOPHIL: 173.33 CELLS/uL
  ABSOLUTE LYMPHOCYTE: 15104 CELLS/uL
  ABSOLUTE MONOCYTE: 284 CELLS/uL
  ABSOLUTE SEGMENTED NEUTROPHIL: 1672 CELLS/uL
  BASOPHIL: 0%
  EOSINOPHIL: 1%
  ERYTHROCYTE COUNT: 5.38 x10E6/uL
  HEMATOCRIT: 34.17%
  HEMOGLOBIN: 13.5 G/DL
  LEUKOCYTE COUNT: 17.23 x10E3/uL
  LYMPHOCYTE: 87.67%
  MEAN CORPUSCULAR HEMOGLOBIN: 25.13 pg
  MEAN CORPUSCULAR HEMOGLOBIN CONCENTRATION: 39.53 G/DL
  MEAN CORPUSCULAR VOLUME: 63.6 fL
  MONOCYTE: 1.67%
  NEUTROPHIL: 9.67%
  NUCLEATED RED BLOOD CELLS: 0 /100WBC
  PLATELET COUNT: 1285.33 x10E3/uL
  ALANINE AMINOTRANSFERASE: 51.67 u/L
  ALBUMIN: 4.33 G/DL
  ALKALINE PHOSPHATASE: 402.67 u/L
  ASPARTATE AMINOTRANSFERASE: 102.67 u/L
  BLOOD UREA NITROGEN: 15 mg/dL
  CARBON DIOXIDE: 21.67 mmol/L
  CHLORIDE: 102 MEQ/L
  CHOLESTEROL: 79 mg/dL
  CREATINE PHOSPHOKINASE: 445.33 u/L
  CREATININE: 0.15 mg/dL
  GLUCOSE: 149.33 mg/dL
  LACTATE DEHYDROGENASE: 669.33 u/L
  LIPASE: 9 u/L
  PHOSPHORUS: 13.03 mg/dL
  POTASSIUM: 6.9 MEQ/L
  SODIUM: 143.67 MEQ/L
  TOTAL BILIRUBIN: 0.17 mg/dL
  TOTAL PROTEIN: 5.93 G/DL
  URIC ACID: 1.7 mg/dL
[4]
  ABSOLUTE BASOPHIL: 0 CELLS/uL
  ABSOLUTE EOSINOPHIL: 118.67 CELLS/uL
  ABSOLUTE LYMPHOCYTE: 15901.33 CELLS/uL
  ABSOLUTE MONOCYTE: 415.33 CELLS/uL
  ABSOLUTE SEGMENTED NEUTROPHIL: 1364.67 CELLS/uL
  BASOPHIL: 0%
  EOSINOPHIL: 0.67%
  ERYTHROCYTE COUNT: 5.51 x10E6/uL
  HEMATOCRIT: 34.63%
  HEMOGLOBIN: 13.57 G/DL
  LEUKOCYTE COUNT: 17.8 x10E3/uL
  LYMPHOCYTE: 89.33%
  MEAN CORPUSCULAR HEMOGLOBIN: 24.63 pg
  MEAN CORPUSCULAR HEMOGLOBIN CONCENTRATION: 39.17 G/DL
  MEAN CORPUSCULAR VOLUME: 62.8 fL
  MONOCYTE: 2.33%
  NEUTROPHIL: 7.67%
  NUCLEATED RED BLOOD CELLS: 0 /100WBC
  PLATELET COUNT: 1309.33 x10E3/uL
  ALANINE AMINOTRANSFERASE: 57 u/L
  ALBUMIN: 4.33 G/DL
  ALKALINE PHOSPHATASE: 365.67 u/L
  ASPARTATE AMINOTRANSFERASE: 95.67 u/L
  BLOOD UREA NITROGEN: 16 mg/dL
  CARBON DIOXIDE: 23.33 mmol/L
  CHLORIDE: 102.67 MEQ/L
  CHOLESTEROL: 66.33 mg/dL
  CREATINE PHOSPHOKINASE: 259 u/L
  CREATININE: 0.18 mg/dL
  GLUCOSE: 166 mg/dL
  LACTATE DEHYDROGENASE: 229 u/L
  LIPASE: 8.33 u/L
  PHOSPHORUS: 13.17 mg/dL
  POTASSIUM: 6.59 MEQ/L
  SODIUM: 144.97 MEQ/L
  TOTAL BILIRUBIN: 0.23 mg/dL
  TOTAL PROTEIN: 5.93 G/DL
  URIC ACID: 2.2 mg/dL
